Results on 5 molecules are retold here after patent US8852876B2, “Label free biosensors and cells” (Corning Incorporated, priority 2008, dated 2014).

In data set [1] the test system is EGF-induced response of quiescent A431 cells. As to the kind of experiment: Effect of compound pretreatment on EGF-induced DMR response. The settings on record: quiescent A431 cells; 32 nM EGF. In kind it is cell-based, human. The method, then:
Both A431 and CHO-K1 cells were grown in Dulbecco's modified Eagle's medium (DMEM) supplemented with 10% fetal calf serum, 100 μg/ml penicillin, and 100 μg/ml streptomycin. For cell culture, certain numbers of cells (2×10^5 to 1×10^6), either A431 or CHO-K1, were suspended in […] medium were placed in each well of a 96 well Corning Epic Biosensor microplate, and were cultured at 37° C. in air/5% CO2 for certain time until the cell density reached ˜90% and above (unless specified). The resulted cells were termed as “profilerating” cells. The “quiescent” cells were obtained by culturing the profilerating cells of desired confluencies with a medium containing no or little (˜0.1% fetal bovine serum (FBS)) for at least 16 hours.
During the assays, the cells in 100 μl medium were subject to two 25 μl HBSS buffer containing 20 mM HEPES, pH 7.4, each separated by at least 15 minutes before 50 μl stimulus-containing solution was applied. During all these steps, a parallel angular interrogation system was used to monitor the real time kinetics of cellular responses. For compound effect studies, a modified protocol was used which starts with 50 μl medium, and subject to sequential treatment: 25 μl HBSS buffer twice (each separated by at least 15 minutes), 50 μl compound solution and finally 50 μl stimulus-containing solution.

Data set [2] concerns CHO cells. As to the kind of experiment: Saponin-permeabilized cell assay for cytoskeleton modulators (LID biosensor). In kind it is cell-based, Chinese hamster. The settings on record: saponin 67 ug/ml. The source says:
The method involves the use of pore-forming reagents (e.g, saponin) to generate permeabilized cells which permit soluble proteins to diffuse away. It is known that treatment of the cells with many pore-forming reagents leads to permeabilized cells. Since intracellular macromolecules are highly organized within the cytoplasm of mammalian cells through direct binding to cytoskeletal elements, the permeabilized cells still retain most of the biological functions of living cells by sequestration of intracellular machinery through the cytoskeleton super-assembled structure, although the saponin-treated cells undergo the loss of some portions of biomacromolecules. However, upon disruption of microfilaments there is a dramatic reduction of protein synthesis accompanied by release of these translation components from the cells. Also, many other sequestered biomacromolecules are released from these permeabilized cells after disrupting the cytoskeleton structure. These further released materials from the permeabilized cells result in the loss in mass; thus resulting in the changes in effective refractive index of the cell layer on the surface of a LID biosensor which can be detected by LID biosensors. Thus, the changes obtained using optical biosensors can be used as an indicator of modulators that interfere with the cytoskeleton structure. In one embodiment, the present methods can be used to screen modulators that interfere with the cytoskeleton structure using the method 2500 shown in FIG. 25. In accordance with method 2500 one can monitor the mass redistribution due to pore formation of cell surface membranes induced by pore-forming reagents such as saponin in living cells 1008 by: (a) providing an optical LID biosensors 1004 (step 2502); (b) placing cells 1008 in a cell medium onto the said sensor 1004 (step 2504); (c) Optionally applying a buffer solution (step 2506); (d) applying a solution containing a compound into the cell mediums located on the top surfaces 1010 of covered optical LID biosensors 1004 (step 2508); applying a solution containing a pore-forming reagent (step 2510); and (e) interrogating the covered optical LID biosensors 1010 to monitor the time dependent optical responses which indicate mass redistributions within the permeabilized cells 1008 (step 2512). A Pore-forming reagent is a chemical or biological compound or composition that can result in the formation of pores in cell surface membranes when the cells are exposed to the reagent.
The pore-forming regents include detergents such as saponin and filipin, or toxin such as digitonin or streptolysin O. It is well known that treatment of the cells with these reagents can result in the pore formation in cell surface membrane; the resulted permeabilized cells can release a certain amount of intracellular material, mainly soluble proteins. However, there are a great number of bio-materials that still stay with these permeabilized cells due to the sequestration by directly binding or association with the cytoskeleton structure. As a matter of fact, these permeabilized cells retain many of the biological functions of living cells such as protein synthesis.
FIG. 50 presents the dose-dependent responses of CHO cells adherent on the surface of a LID sensor in response to saponin as a function of time. After the addition of saponin at different concentrations, a different response is evident. At low concentration, there is almost no response. […]

In data set [3] the target is T1, protease activated receptors PAR1 and PAR2 (Homo sapiens, UniProt P25116).
T1 construct: A431 cells which endogenously express PAR1 and PAR2; endogenous in cells; host or cells: A431
T1 sequence (P25116 22-425): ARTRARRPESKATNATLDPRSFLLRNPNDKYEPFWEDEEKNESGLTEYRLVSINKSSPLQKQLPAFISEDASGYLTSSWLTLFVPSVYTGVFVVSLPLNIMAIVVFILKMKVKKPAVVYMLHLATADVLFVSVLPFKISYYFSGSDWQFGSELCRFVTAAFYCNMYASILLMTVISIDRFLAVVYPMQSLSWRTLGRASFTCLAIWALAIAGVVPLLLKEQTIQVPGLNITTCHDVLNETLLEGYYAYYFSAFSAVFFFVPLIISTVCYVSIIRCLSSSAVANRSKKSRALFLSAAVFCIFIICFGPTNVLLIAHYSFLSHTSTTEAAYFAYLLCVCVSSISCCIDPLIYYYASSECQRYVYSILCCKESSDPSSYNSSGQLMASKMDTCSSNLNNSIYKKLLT
In kind it is cell-based. The settings on record: 40 unit/ml thrombin; modulators 10 μM. The method, then:
(§1) Human epidermoid carcinoma A431 cells (American Type Cell Culture) were grown in Dulbecco's modified Eagle's medium (DMEM) supplemented with 10% fetal bovine serum (FBS), 4.5 g/liter glucose, 2 mM glutamine, and antibiotics. ˜3-7.5×10^4 cells at passage 3 to 5 suspended in 200 μl the DMEM medium containing 10% FBS were placed in each well of a 96 well microplate, and were cultured at 37° C. under air/5% CO2 until ˜95% confluency was reached (˜2-4 days).
(§2) The compound or PAR agonist solutions were made in 1×HBSS in order to match the refractive index between the cell medium and compound solution, thus minimizing the unwanted effect of bulk index change due to the introduction of compound solution which can temporarily overwhelms any DMR signal as it occurs.

Data set [4] has as its system protease activated receptors PAR1 and PAR2. In kind it is cell-based, human. The settings on record: 100 or 200 nM trypsin; modulators 10 μM. The method, then:
as §1, §2

Data set [5] relates to CHO cells. As to the kind of experiment: Biosensor-based cell toxicity (real-time DMR, TM0 resonant peak and band image). The settings on record: for TM0 mode resonance band image: 25 min. Further details: species or system Chinese hamster. From the text: Profiling compounds by virtue of their cytotoxic and anti-proliferative effects is often used to profile potential anticancer agents. One such phenotype is the compromise in plasma membrane integrity when cells are exposed to cytotoxic agents, including dimethyl sulfoxide (DMSO). Using a waveguide-based biosensor technique, the feasibility for monitoring the effect of DMSO on both Chinese hamster ovary (CHO) and A431 cells was examined. Approximately 10×10^5 cells were placed into each well of a Corning Epic LID microplate. These cells were cultured in serum medium for overnight to ensure that the cells became adherent to the substrate surface and reach at least 80% confluence. The response of cells to DMSO at different concentrations (1%, 2%, 5%, 10%, 15%, 18% and 20%) was examined. Higher concentrations of ˜≧25% of DMSO result in bulk index changes which are beyond the maximum dynamic range of the sensor used and the signal was lost. At least two sets of experiments were carried out for each cell line.
Both A431 and CHO-K1 cells were grown in Dulbecco's modified Eagle's medium (DMEM) supplemented with 10% fetal calf serum, 100 μg/ml penicillin, and 100 μg/ml streptomycin. For cell culture, ˜10×10^5 cells, either A431 or CHO-K1, were suspended in 200 μl medium were placed in each well of a 96 well Corning Epic Biosensor microplate, and were cultured at 37° C. in air/5% CO2 for overnight. Before the assays, the cells were washed once with the corresponding medium. During the assays, the cells in 100 μl medium were subject to two 25 μl HBSS buffer solutions containing 20 mM HEPES, pH 7.4, each separated by at least 15 minutes before 50 μl DMSO solution was applied. During all these steps, a parallel angular interrogation system was used to monitor the real time kinetics of cellular responses.
In one embodiment, the present invention provides a method for high throughput screening compound toxicity on cells using optical biosensors, which comprises of: (a) Provide a microplate that there is an optical-based label free biosensor embedded in the bottom of each well; (b) Place cells into each well to cover the biosensor such that the cells attach and reach high confluency onto the surface of the biosensor; (c) Apply a compound solution into the cell medium of each well; (e) Collect optical waveguide lightmode spectra at certain time. Comparing the PWHM of each compound with a control well wherein the cells are not exposed to any compound solution, the toxicity of compounds can be evaluated using the single data point. If necessary, time-dependent PWHM changes can be also recorded to study the kinetics.
In another embodiment, the present invention provides alternative methods to evaluate compound toxicity, which comprises of: (a) Provide a microplate that there is an optical-based label free biosensor embedded in the bottom of each well; (b) Place cells into each well to cover the biosensor such that the cells attach and reach desired confluency onto the surface of the biosensor; (c) Apply a compound solution into the cell medium of each well; (e) Collect images of TM0 mode resonance angular band of the whole sensor area of each well at certain time. Comparing the widths of the resonant bands of sensors that have been treated with a compound solution with that of a control well wherein the cells are not exposed to any compound solution; the toxicity of compounds can be evaluated.

*1 amine or outer side, *2 acyl side, *3 side chain or, on linkers, in order; H or OH if unused. Where a SMILES comes first, the peptide text is derived from it. Bridges are numbered along the chain shown (N, C = ends). [ ]: non-standard residue; d: D form. Trp(2-yl) = O=C([C@H](Cc1c([*:3])[nH]c2ccccc12)N[*:1])[*:2]; Leu(4R-OH,5-OH) = C[C@](O)(CO)C[C@H](N)C(=O)O; cisHyp = O=C(O)[C@@H]1C[C@H](O)CN1

For the molecule `C[C@@H]1NC(=O)[C@H](C[C@@](C)(O)CO)NC(=O)[C@@H]2Cc3c([nH]c4ccccc34)SC[C@H](NC(=O)[C@@H]([C@H](C)O)NC1=O)C(=O)N1C[C@@H](O)C[C@H]1C(=O)N[C@@H](C)C(=O)N2` [phalloidin] (cyclo(A[dT]C[cisHyp]A[Trp(2-yl)][Leu(4R-OH,5-OH)]); thioether 3-6), in data set [1], the “Effect of pretreatment on 32 nM EGF-induced response” value is given as “hardly any effect on the EGF-induced response”. Further, the “Effect of compound pre-treatment on saponin-induced response (loss of biomaterials)” value (“Effect … (loss of biomaterials)” for short) in the data set on CHO cells [2] is on record as “delay the loss of biomaterials in saponin-treated cells”. Besides, the “Effect of pretreatment on thrombin-mediated DMR signal” value in data set [3] is listed as “neither a stabilizing polymeric F-actin agent phalloidin nor a microtubule disrupter nocodazole had significant effect”. For the same molecule, in data set [4], the “Effect of pretreatment on trypsin-mediated DMR signal” value was “neither a stabilizing polymeric F-actin agent phalloidin nor a microtubule disrupter nocodazole had significant effect”.
For the molecule `CC[C@]1(O)C[C@@H]2CN(CCc3c([nH]c4ccccc34)[C@@](C(=O)OC)(c3cc4c(cc3OC)N(C)[C@H]3[C@@](O)(C(=O)OC)[C@H](OC(C)=O)[C@]5(CC)C=CCN6CC[C@]43[C@@H]65)C2)C1` [vinblastine], the “Effect of pretreatment on 32 nM EGF-induced response” value in data set [1] is on record as “hardly any effect on the EGF-induced response”. In addition, in the data set on CHO cells [2], the “Effect … (loss of biomaterials)” value is “block the saponin-induced loss of biomaterials from the cells”.
Turning to `C[S+](C)[O-]` [DMSO, dimethyl sulfoxide], in data set [1], the “Effect of pretreatment on 32 nM EGF-induced response” value was “a little effect on the EGF-induced response”. Moreover, the “TM0 mode resonance band image” value is “DMSO-induced resonance band broadening” in the data set with CHO cells [5] (18% DMSO, confluency above 70%) and “a second resonance band appearing” in the data set on CHO cells [5] (~15% DMSO, ~95% confluency). Further, the “PWHM of TM0 resonant peak over time” value in the data set on CHO cells [5] (18% DMSO, cell density below ~25%) is on record as “no change in the PWHM value over time”; in the data set with CHO cells [5] (18% DMSO, confluency >70%) it was “an initial increase in PWHM followed by decreasing PWHM value”. Further, in the data set with CHO cells [5] (DMSO 20%), the “DMSO-induced time-dependent response of cell layer, event D” value was “a prolonged and decreased signal due to the loss of proteins or other biological molecules of cells caused by the toxicity of high concentrations of DMSO”. For the same molecule, the “DMSO-induced time-dependent response of cell layer” value in the data set with CHO cells [5] (DMSO concentration <20%) is reported as “the response is almost featureless”. The “TM0 mode resonance band image, dependence on DMSO concentration” value with CHO cells [5] (~95% confluency, 25 min treatment) is recorded as “only higher concentrations cause significant cell toxicity”.
As for `C[C@H]1CCC/C=C/[C@@H]2C[C@H](O)C[C@H]2[C@H](O)/C=C/C(=O)O1` [brefeldin A], in the data set on CHO cells [2], the “Effect … (loss of biomaterials)” value is “show no effect on a saponin-induced response”.
Take `C=C1[C@@H](C)[C@H]2[C@H](Cc3ccccc3)NC(=O)[C@]23OC(=O)/C=C/[C@H](O)CCC[C@@H](C)C/C=C/[C@H]3[C@@H]1O` [cytochalasin B]: the “Effect of pretreatment on 32 nM EGF-induced response” value in data set [1] is recorded as “totally abolished the N-DMR signal”. Besides, the “Effect … (loss of biomaterials)” value with CHO cells [2] is recorded as “cause increased loss of biomaterials”. In data set [3], the “Effect of pretreatment on thrombin-mediated DMR signal” value is reported as “much less effective in suppressing the responses”. The “Effect of pretreatment on trypsin-mediated DMR signal” value in data set [4] is given as “much less effective in suppressing the responses”.
